Test results from ChEMBL document CHEMBL6153137, “Design, Synthesis, and Biological Evaluation of Novel Orally Available Covalent CDK12/13 Dual Inhibitors for the Treatment of Tumors” (J Med Chem, 2025).
pIC50: −log10 of the molar value. The source made the active and inactive calls. The rule behind the calls is not given here.

Experiments:
[1] = Toxicity against male Sprague-Dawley rat assessed as increase in neutrophils content at 10 to 40 mg/kg, po administered once daily via gavage for 28 days and measured on day 29; type: organism-based; conditions: in vivo, 696 h, dose 10-40 mg/kg, time 29 day
[2] = Half life in Sprague-Dawley rat at 5 mg/kg, po measured for 24 hrs by LC-MS/MS analysis; type: ADME, organism-based; conditions: in vivo
[3] = Cmax in female Sprague-Dawley rat at 30 mg/kg, po administered once daily via gavage for 28 days; type: ADME, organism-based; conditions: in vivo, time 28 day
[4] = AUC in Balb/c mouse xenografted with human SUM149PT cells at 60 mg/kg, po administered once daily via gavage; type: ADME, organism-based; conditions: in vivo
[5] = target: Voltage-gated inwardly rectifying potassium channel KCNH2 (Homo sapiens, UniProt Q12809); experiment: Inhibition of hERG expressed in CHO cells assessed as inhibition of channel current measured at holding potential of -80 mV by whole cell patch clamp analysis; type: toxicity, cell-based
Chain of Voltage-gated inwardly rectifying potassium channel KCNH2 (Q12809 whole entry): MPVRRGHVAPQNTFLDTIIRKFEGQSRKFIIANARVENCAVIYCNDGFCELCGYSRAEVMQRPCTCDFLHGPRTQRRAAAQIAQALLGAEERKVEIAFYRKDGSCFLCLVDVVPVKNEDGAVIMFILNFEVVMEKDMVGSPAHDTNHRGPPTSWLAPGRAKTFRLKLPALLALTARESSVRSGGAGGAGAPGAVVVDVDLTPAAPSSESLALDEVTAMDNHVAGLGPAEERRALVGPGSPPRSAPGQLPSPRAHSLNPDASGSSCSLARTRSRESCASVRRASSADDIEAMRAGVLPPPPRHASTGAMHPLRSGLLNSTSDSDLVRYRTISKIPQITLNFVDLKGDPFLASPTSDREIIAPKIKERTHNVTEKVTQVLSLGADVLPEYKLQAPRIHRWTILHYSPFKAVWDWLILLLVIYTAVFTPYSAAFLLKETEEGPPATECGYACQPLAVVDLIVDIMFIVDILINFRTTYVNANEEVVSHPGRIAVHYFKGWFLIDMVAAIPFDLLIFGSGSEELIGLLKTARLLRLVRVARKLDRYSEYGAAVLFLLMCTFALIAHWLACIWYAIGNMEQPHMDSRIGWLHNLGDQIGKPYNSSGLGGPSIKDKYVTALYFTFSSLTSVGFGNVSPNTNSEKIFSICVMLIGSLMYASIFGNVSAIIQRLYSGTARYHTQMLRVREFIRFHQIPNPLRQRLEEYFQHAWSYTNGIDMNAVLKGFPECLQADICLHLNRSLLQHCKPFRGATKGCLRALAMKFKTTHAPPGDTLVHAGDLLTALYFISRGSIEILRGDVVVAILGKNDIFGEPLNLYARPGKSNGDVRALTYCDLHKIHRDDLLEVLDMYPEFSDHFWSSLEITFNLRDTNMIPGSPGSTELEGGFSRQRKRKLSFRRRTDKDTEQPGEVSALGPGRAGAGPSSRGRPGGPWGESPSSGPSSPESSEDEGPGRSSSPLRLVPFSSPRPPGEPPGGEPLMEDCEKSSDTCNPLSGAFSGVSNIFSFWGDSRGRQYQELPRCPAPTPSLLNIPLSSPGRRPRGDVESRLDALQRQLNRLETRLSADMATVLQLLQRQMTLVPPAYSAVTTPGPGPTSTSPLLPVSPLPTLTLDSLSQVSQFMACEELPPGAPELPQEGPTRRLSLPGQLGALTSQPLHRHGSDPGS

[6] = Toxicity against male Sprague-Dawley rat assessed as effect on red blood cells level at 10 to 40 mg/kg, po administered once daily via gavage for 28 days and measured on day 29; type: organism-based; conditions: in vivo, 696 h, dose 10-40 mg/kg, time 29 day
[7] = target: Cyclin-dependent kinase 12/13 (Homo sapiens) (UniProt Q14004+Q9NYV4); experiment: Inhibition of CDK12/13 in human SUM149PT cells assessed as reduction in level of phosphorylation of Ser2 on RNA Pol II CTD incubated for 24 hrs by western blot analysis; type: cell-based; conditions: dose 250-1000 nM
[8] = Permeability of the compound in human Caco-2 cells at 2 uM incubated for 2 hrs by LC-MS/MS analysis; type: ADME, cell-based; conditions: read-out: permeability
[9] = target: CDK1/Cyclin E (Homo sapiens) (UniProt P06493+P24864); experiment: Inhibition of human recombinant N-terminal GST-tagged CDK1/Cyclin E1 expressed in HEP Sf9 cells using ATP as substrate at 2 uM measured after 60 mins by ADP-Glo reagent based luminescence analysis
Chain of CDK1/Cyclin E (Homo sapiens) (P06493 whole entry, looked up): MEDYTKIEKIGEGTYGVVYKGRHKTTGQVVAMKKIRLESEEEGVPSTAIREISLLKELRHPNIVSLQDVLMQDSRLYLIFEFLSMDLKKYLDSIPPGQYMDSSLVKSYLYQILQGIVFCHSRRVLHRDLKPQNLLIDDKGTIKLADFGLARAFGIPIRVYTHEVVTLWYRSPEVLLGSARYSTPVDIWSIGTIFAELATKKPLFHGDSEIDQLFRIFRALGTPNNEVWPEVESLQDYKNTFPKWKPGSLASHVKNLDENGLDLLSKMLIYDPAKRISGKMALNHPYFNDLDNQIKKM
Chain of CDK1/Cyclin E (Homo sapiens) (P24864 whole entry, looked up): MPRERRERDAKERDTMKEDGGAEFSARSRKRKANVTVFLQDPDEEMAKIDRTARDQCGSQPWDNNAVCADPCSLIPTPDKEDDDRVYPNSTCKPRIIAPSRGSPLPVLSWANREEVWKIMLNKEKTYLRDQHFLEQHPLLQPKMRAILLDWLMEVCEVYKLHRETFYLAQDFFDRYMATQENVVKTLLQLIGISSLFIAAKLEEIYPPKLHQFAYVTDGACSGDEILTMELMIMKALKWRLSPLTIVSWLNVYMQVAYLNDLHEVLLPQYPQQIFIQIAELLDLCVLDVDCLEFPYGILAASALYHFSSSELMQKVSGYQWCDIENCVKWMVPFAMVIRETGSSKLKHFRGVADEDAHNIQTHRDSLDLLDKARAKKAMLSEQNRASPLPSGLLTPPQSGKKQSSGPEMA

[10] = target: Cyclin-dependent kinase 9 (Homo sapiens) (UniProt P50750); experiment: Inhibition of CDK9 in human SUM149PT cells assessed as reduction in level of phosphorylation of Ser7 on RNA Pol II CTD at 500 nM incubated for 12 hrs followed by drug wash-out and measured after 72 hrs by western blot analysis; type: cell-based
Chain of Cyclin-dependent kinase 9 (Homo sapiens) (P50750 whole entry): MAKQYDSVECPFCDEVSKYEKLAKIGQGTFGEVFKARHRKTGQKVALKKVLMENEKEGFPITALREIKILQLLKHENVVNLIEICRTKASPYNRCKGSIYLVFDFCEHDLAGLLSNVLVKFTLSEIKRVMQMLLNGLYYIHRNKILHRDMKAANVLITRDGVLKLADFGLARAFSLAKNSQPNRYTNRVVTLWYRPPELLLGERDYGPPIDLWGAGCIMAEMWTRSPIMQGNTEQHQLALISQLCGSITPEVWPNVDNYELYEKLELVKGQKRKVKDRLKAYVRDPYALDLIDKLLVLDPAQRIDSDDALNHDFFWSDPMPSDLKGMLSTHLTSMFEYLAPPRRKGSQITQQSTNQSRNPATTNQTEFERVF

[11] = Cmax in Balb/c mouse xenografted with human SUM149PT cells at 60 mg/kg, po administered once daily via gavage; type: ADME, organism-based; conditions: in vivo

half-life [2]: 48 min
Cmax [3]: 1.69 µg/mL
AUC [4]: 4.62 µg·h/mL
inhibition [7]: Dose-dependent-effect
Papp at 2 h, 2 µM [8]: 46 nm/s
inhibition [9]: 24%
inhibition [10]: inactive
Cmax [11]: 3.3 µg/mL
Structure (SMILES): C=CC(=O)N1CCc2c(ncnc2N2CC[C@@H](Nc3ncc(Cl)c(OC)n3)C2)C1
Activity [1]: Toxic
pIC50 [5]: < 4.52
Activity [6]: Non-toxic
